As a reminder, the kinetic solubility is the concentration staying in solution when a stock, usually in DMSO, is diluted into the medium.

We go through 6 compounds from publication PMC8011931, “Identification, Structure–Activity Relationship, and Biological Characterization of 2,3,4,5-Tetrahydro-1H-pyrido[4,3-b]indoles as a Novel Class of CFTR Potentiators” (Journal of Medicinal Chemistry, 2020).

A short description of data set [1]: Aqueous kinetic solubility assay. Format: physicochemical. The conditions noted are these: PBS, pH 7.4; n = 3. How it is done:
The aqueous kinetic solubility was determined from a 10 mM DMSO stock solution of test compound in PBS at pH 7.4. The study was performed by incubation of an aliquot of 10 mM DMSO stock solution in PBS (pH 7.4) at a target concentration of 250 μM (2.5% DMSO). The incubation was carried out under shaking at 25 °C for 24 h, followed by centrifugation at 21,100g for 30 min. The supernatant was further diluted (4:1) with CH3CN and the dissolved test compound was quantified by UV at 215 nm on a Waters ACQUITY UPLC/MS system consisting of an SQD mass spectrometer equipped with an electrospray ionization interface and a photodiode array detector. Electrospray ionization in the positive mode was used in the mass scan range of 100–500 Da. The PDA range was 210–400 nm. The analyses were run on an ACQUITY UPLC BEH C18 column (50 × 2.1 mm ID, particle size 1.7 μm) with a VanGuard BEH C18 precolumn (5 × 2.1 mm ID, particle size 1.7 μm) using 10 mM NH4OAc in H2O at pH 5 adjusted with AcOH (A) and 10 mM NH4OAc in CH3CN–H2O (95:5) at pH 5 (B) as the mobile phase.

Data set [2] in a line: Liver microsomal stability, phase I (NADPH), rat. As to conditions: for rat LM_NADPH parent compound remaining at the last time point (in parentheses): 4.6 μM, 60 min; for half-life at 4.6 μM / half-life at 1 h, 4.6 µM: rat, liver microsomes, pH 7.5, 0.1% DMSO, n ≥ 3, read-out: rat LM_NADPH t1/2. Format: in vitro ADME. How it is done: Phase I: 10 mM DMSO stock solution of the test compound was preincubated at 37 °C for 15 min with rat, dog, or human liver microsomes in 0.1 M Tris–HCl buffer (pH 7.5) with 10% DMSO. The final concentration was 4.6 μM. After preincubation, the cofactors (NADPH, G6P, G6PDH, and MgCl2 predissolved in 0.1 M Tris–HCl) were added to the incubation mixture and the incubation was continued at 37 °C for 1 h.
(§1) For both phase I and II studies: At each time point (0, 5, 15, 30, and 60 min), 30 μL of the incubation mixture was diluted with 200 μL of cold CH3CN spiked with 200 nM of an appropriate internal standard, followed by centrifugation at 3270g for 15 min. The supernatant was further diluted with H2O (1:1) for analysis. A reference incubation mixture (microsomes without cofactors) was prepared for each test compound and analyzed at t = 0 and 60 min in order to verify the compound’s stability in the matrix. The two time points were diluted as for the time points of the incubation mixture above. The supernatants were analyzed by LC/MS–MS on a Waters ACQUITY UPLC/MS TQD system consisting of a TQD (triple quadrupole detector) mass spectrometer equipped with an electrospray ionization interface and a photodiode array eλ detector. Electrospray ionization was applied in positive mode. Compound-dependent parameters as MRM transitions and collision energy were developed for each compound. The analyses were run on an ACQUITY UPLC BEH C18 (50 × 2.1 mm ID, particle size 1.7 μm) with a VanGuard BEH C18 precolumn (5 × 2.1 mm ID, particle size 1.7 μm) at 40 °C, using H2O + 0.1% HCOOH (A) and CH3CN + 0.1% HCOOH (B) as the mobile phase. The percentage of test compound remaining at each time point relative to t = 0 was calculated by the response factor on the basis of the internal standard peak area. The percentage of test compound versus time was plotted and fitted by GraphPad Prism (GraphPad Software, Version 5 for Windows, CA, USA, www.graphpad.com) to estimate the compound’s half-life (t1/2), which was reported as mean value along with the standard deviation (n = 3).
On the technique in general: Liver microsomes are a subcellular fraction often used to study metabolism.

The subject of another data set is HepG2 cells. The data set can be described thus: HepG2 cell toxicity assay (CTG and MTT). Format: cell-based. The conditions noted are these: at 20 μM, 24 h, CTG and MTT assays; percent of vehicle-treated controls. How it is done: In order to assess a possible liver toxicity liability, the selected analogues were also tested in HepG2 cells at two concentrations (2.0 and 20 μM) for 24 h, along with a reference compound (rotenone). A reduction of cell viability to less than 80% was set as the threshold for estimation of cytotoxicity.[42]
To increase the detection of drug-induced mitochondrial effects in a preclinical cell-based assay, HepG2 hepatocellular carcinoma cells (ATCC HB-8065) were forced to rely on mitochondrial oxidative phosphorylation rather than glycolysis by substituting galactose (10 mM) for glucose (25 mM) in the growth media (DMEM, Life Technologies).
High-glucose media: high-glucose DMEM (Invitrogen 11995-065) containing 25 mM glucose, 1.0 mM sodium pyruvate, supplemented with 5 mM N-(2-hydroxyethyl)piperazine-N′-(2-ethanesulfonic acid) (HEPES), and 10% FBS. Galactose media: DMEM deprived of glucose (Invitrogen 11966-025), supplemented with 10 mM galactose, 2.0 mM glutamine (6 mM final), 5.0 mM HEPES, 10% FBS, and 1.0 mM sodium pyruvate.
For the cytotoxicity assay, cells were plated at 20,000 cells/well in 100 μL of cell culture media in 96-well plates and allowed to grow overnight. The cells were treated for 24 h with 2.0 or 20 μM of each compound. All compounds were dissolved in DMSO with a stock concentration of 4 mM. The first dilution step of compounds was prepared in DMSO (200× stock solutions), while the second dilution step was carried out in a complete cell culture medium (5% DMSO). Of this dilution, 10 μL were added to the wells of the 96-well plate, with a final DMSO concentration of 0.5%. Rotenone, a well-known mitochondrial inhibitor, was used as a reference compound. After treatment, cellular viability was assessed by using two different assays, run on independent plates: the CellTiter-Glo (CTG) Luminescent Cell Viability Assay (Promega), which determines the number of viable cells based on the quantitation of the ATP present, and the thiazolyl blue tetrazolium […] (MTT) dye (Aldrich), which is converted to water-insoluble MTT formazan crystals by mitochondrial dehydrogenases of living cells. Each experimental condition (i.e., control, reference, and compounds’ doses) has been tested in three technical replicates.

Data set [3] can be described thus: Liver microsomal stability, phase II (UDPGA), human. The conditions noted are these: for human LM_UDPGA parent compound remaining at the last time point (in parentheses): 4.6 μM, 60 min; for half-life at 4.6 μM: human, liver microsomes, pH 7.5, 0.1% DMSO, n ≥ 3, read-out: human LM_UDPGA t1/2. Format: in vitro ADME. How it is done:
Phase II: 10 mM DMSO stock solution of the test compound was preincubated at 37 °C for 15 min with human liver microsomes added alamethicin in 0.1 M Tris–HCl buffer (pH 7.5) with 10% DMSO. The final concentration was 4.6 μM. After preincubation, the cofactors (UDPGA, D-saccharic acid lactone, and MgCl2 predissolved in 0.1 M Tris–HCl) were added to the incubation mixture and the incubation was continued at 37 °C for 1 h.
as §1

Values after ≈ are worked out from the molar mass of the structure shown. Where only a bound is given, the exact number is not on record here.

`O=C(c1cc(C(F)(F)F)[nH]n1)N1CCc2[nH]c3c(F)cccc3c2C1` [Compound 20, (6-Fluoro-1,3,4,5-tetrahydro-2H-pyrido[4,3-b]indol-2-yl)-(5-(trifluoromethyl)-1H-pyrazol-3-yl)methanone] registered a solubility (kinetic) at 24 h, 250 µM in data set [1] of 9 ± 4 µM (≈ 3.17 µg/mL). In addition, in data set [2], the “rat LM_NADPH parent compound remaining at the last time point (in parentheses)” value is 64% and the half-life at 4.6 μM was above 60 min. The “HepG2 (% survival)” value in the data set with HepG2 cells is listed as above 80%.
In data set [1], `Cc1ccc(F)c2[nH]c3c(c12)CN(C(=O)c1cc(C(F)(F)F)[nH]n1)CC3` [Compound 30, (6-Fluoro-9-methyl-1,3,4,5-tetrahydro-2H-pyrido[4,3-b]indol-2-yl)-(5-(trifluoromethyl)-1H-pyrazol-3-yl)methanone] showed a solubility (kinetic) at 24 h below 1 µM. Further, the half-life at 1 h, 4.6 µM in data set [2] was found to be 32 ± 1 min. In addition, in data set [3], the “human LM_UDPGA parent compound remaining at the last time point (in parentheses)” value amounted to 75% and the half-life at 4.6 μM is above 60 min. Besides, in the data set with HepG2 cells, the “HepG2 (% survival)” value is listed as above 80%.
As to `Cc1ccc(F)c2[nH]c3c(c12)CN(C(=O)c1cc(C(F)(F)F)[nH]n1)[C@H](C)C3` [Compound 39, (R)-(6-Fluoro-3,9-dimethyl-1,3,4,5-tetrahydro-2H-pyrido[4,3-b]indol-2-yl)-(5-(trifluoromethyl)-1H-pyrazol-3-yl)methanone], the kinetic solubility at 24 h in data set [1] was below 1 µM. Besides, in data set [2], the “rat LM_NADPH parent compound remaining at the last time point (in parentheses)” value is recorded as 70% and the half-life at 4.6 μM is above 60 min. In data set [3], the “human LM_UDPGA parent compound remaining at the last time point (in parentheses)” value came to 79% and the half-life at 4.6 μM is above 60 min. Besides, in the data set with HepG2 cells, the “HepG2 (% survival)” value is listed as above 80%.
`COc1ccc2[nH]c3c(c2c1)CN(C(=O)c1cc(C(F)(F)F)[nH]n1)CC3` [Compound 3, (8-Methoxy-1,3,4,5-tetrahydropyrido[4,3-b]indol-2-yl)-[5-(trifluoromethyl)-1H-pyrazol-3-yl]methanone] came in with a kinetic solubility at 24 h, 250 µM in data set [1] of 237 ± 11 µM (≈ 86.3 µg/mL). Moreover, in data set [2], the half-life at 1 h, 4.6 µM is 30 ± 1 min. Further, the “HepG2 (% survival)” value in the data set with HepG2 cells is recorded as above 80%.
On to `COc1cc(F)c2[nH]c3c(c2c1)CN(C(=O)c1cc(C(F)(F)F)[nH]n1)CC3` [Compound 25, (6-Fluoro-8-methoxy-1,3,4,5-tetrahydro-2H-pyrido[4,3-b]indol-2-yl)-(5-(trifluoromethyl)-1H-pyrazol-3-yl)methanone], for which the kinetic solubility at 24 h, 250 µM in data set [1] stood at 2 ± 1 µM (≈ 0.765 µg/mL). In addition, the half-life at 1 h, 4.6 µM in data set [2] worked out at 20 ± 1 min. Besides, the “HepG2 (% survival)” value in the data set on HepG2 cells is above 80%.
Taken in the same sequence, the figures for `O=C(c1cc(C(F)(F)F)[nH]n1)N1CCc2[nH]c3c(F)ccc(F)c3c2C1` [Compound 29, (6,9-Difluoro-1,3,4,5-tetrahydro-2H-pyrido[4,3-b]indol-2-yl)-(5-(trifluoromethyl)-1H-pyrazol-3-yl)methanone] were 36 ± 5 µM (≈ 13.3 µg/mL), 50 ± 9 min and above 80%.
